T1: purified recombinant CBL protein containing the TKBD-LHR-RING region (Homo sapiens, UniProt P22681)
T1 construct: Residues 25-357 and 2-436 of CBL were cloned in frame into pGEX4T-1; GST (N); made in house
T1 sequence (P22681 2-436): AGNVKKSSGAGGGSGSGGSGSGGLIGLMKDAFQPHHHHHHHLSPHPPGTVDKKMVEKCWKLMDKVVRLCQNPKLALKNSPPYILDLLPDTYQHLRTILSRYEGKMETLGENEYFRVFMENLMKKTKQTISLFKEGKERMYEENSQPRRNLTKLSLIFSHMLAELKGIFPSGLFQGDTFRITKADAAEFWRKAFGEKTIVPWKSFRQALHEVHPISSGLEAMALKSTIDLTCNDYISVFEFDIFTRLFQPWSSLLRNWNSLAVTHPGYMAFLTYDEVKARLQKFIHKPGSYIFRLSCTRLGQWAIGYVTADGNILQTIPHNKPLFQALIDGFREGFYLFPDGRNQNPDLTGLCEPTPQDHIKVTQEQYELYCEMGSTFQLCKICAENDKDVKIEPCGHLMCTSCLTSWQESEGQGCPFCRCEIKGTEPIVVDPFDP

B1: SLAP L241R: mouse SLAP interface mutant analogous to SLAP2 L241R (protein, UniProt Q60898 2-281, looked up, variant L241R)
Src-like-adapter: GNSMKSTSPPSERPLSSSEGLESDFLAVLTDYPSPDISPPIFRRGEKLRVISDEGGWWKAISLSTGRESYIPGICVARVYHGWLFEGLGRDKAEELLQLPDTKIGSFMIRESETKKGFYSLSVRHRQVKHYRIFRLPNNWYYISPRLTFQCLEDLVTHYSEVADGLCCVLTTPCLAQNIPAPTSHPSPCTSPGSPVTLRQKTFDWKRVSRLQEGSEGAENPLRVDESLFSYGLRESIASYRSLTGDDSSSFDRKKKSLSLMYTGSKRKSSFFSAPQYFED
B2: SLAP2 L241R: SLAP2 interface point mutant Leu241 to Arg (protein)
chain: EAERSKATAVALGSFPAGGPAELSLRLGEPLTIVSEDGDWWTVLSEVSGREYNIPSVHVAKVSHGWLYEGLSREKAEELLLLPGNPGGAFLIRESQTRRGSYSLSVRLSRPASWDRIRHYRIHCLDNGWLYISPRLTFPSLQALVDHYSELADDICCLLKEPCVLQRAGPLPGKDIPLPVTVQRTPLNWKELDSSLLFSEAATGEESLLSEGRRESLSFYISLNDEAVSLDDA
modifications: left off: large carriers; small tags and cut ends
notes: SLAP2 interface point mutant Leu241 to Arg
B3: SLAP2 G240R: SLAP2 interface point mutant Gly240 to Arg (protein)
chain: EAERSKATAVALGSFPAGGPAELSLRLGEPLTIVSEDGDWWTVLSEVSGREYNIPSVHVAKVSHGWLYEGLSREKAEELLLLPGNPGGAFLIRESQTRRGSYSLSVRLSRPASWDRIRHYRIHCLDNGWLYISPRLTFPSLQALVDHYSELADDICCLLKEPCVLQRAGPLPGKDIPLPVTVQRTPLNWKELDSSLLFSEAATGEESLLSERLRESLSFYISLNDEAVSLDDA
modifications: left off: large carriers; small tags and cut ends
notes: SLAP2 interface point mutant Gly240 to Arg
B4: SLAP2 L245P: SLAP2 point mutant Leu245 to proline, expected to interrupt the helix (protein)
chain: EAERSKATAVALGSFPAGGPAELSLRLGEPLTIVSEDGDWWTVLSEVSGREYNIPSVHVAKVSHGWLYEGLSREKAEELLLLPGNPGGAFLIRESQTRRGSYSLSVRLSRPASWDRIRHYRIHCLDNGWLYISPRLTFPSLQALVDHYSELADDICCLLKEPCVLQRAGPLPGKDIPLPVTVQRTPLNWKELDSSLLFSEAATGEESLLSEGLRESPSFYISLNDEAVSLDDA
modifications: left off: large carriers; small tags and cut ends
notes: SLAP2 point mutant Leu245 to proline, expected to interrupt the helix
B5: SLAP2 S244E: SLAP2 interface point mutant Ser244 to Glu (protein)
chain: EAERSKATAVALGSFPAGGPAELSLRLGEPLTIVSEDGDWWTVLSEVSGREYNIPSVHVAKVSHGWLYEGLSREKAEELLLLPGNPGGAFLIRESQTRRGSYSLSVRLSRPASWDRIRHYRIHCLDNGWLYISPRLTFPSLQALVDHYSELADDICCLLKEPCVLQRAGPLPGKDIPLPVTVQRTPLNWKELDSSLLFSEAATGEESLLSEGLREELSFYISLNDEAVSLDDA
modifications: left off: large carriers; small tags and cut ends
notes: SLAP2 interface point mutant Ser244 to Glu

Target: T1, purified recombinant CBL protein containing the TKBD-LHR-RING region
Experiment: High-throughput in vitro autoubiquitination assay (modified ELISA-based LifeSensors assay, 384 well), hit validation
Assay type: biochemical
Conditions: validation: triplicate wells; confirmed at percent activation cutoff of at least 20% in at least 2 wells
Excerpt: As an approach to identify novel compounds that mimic SLAP2 binding, and thus stimulate CBL E3 ligase activity, an in vitro autoubiquitination assay was developed based on a modification of a commercially available ELISA based assay (LifeSensors, Inc) and adapted to a 384 well high throughput screen (HTS) format (FIG. 13). The assay uses purified recombinant CBL protein containing the TKBD-LHR-RING region and has been optimized using reference controls; phosphorylated CBL, and CBL with or without addition of purified pSLAP2. Reaction components contained in a master mix (E1, E2, free Ub), test compound and purified CBL are free in solution allowing native protein interactions, and polyubiquitin chains are captured by an immobilized ubiquitin binding domain and quantified using an anti-ubiquitin antibody detection method.
Peptidomimetic Screen: A library of 3000 α-helix and β/γ-turn peptidomimetic compounds were screened across 10 384 well plates. A primary screen yielded 14 hits from the OICR Peptidomimetic library (0.47% hit rate). A hit was defined as any compound producing a luminescent signal at least 4 Standard Deviations from the mean of all compounds on the plate (FIG. 14).
Validation experiment: Triplicate wells of hit compounds were randomly dispersed on plates and hits were confirmed based on a percent activation cutoff of at least 20% in at least 2 wells.

Molecule | confirmed hit: CBL activation
CC(C)OCCCNC(=O)c1cnc2scc(-c3ccccc3)n2c1=O [Hit 10, 5-oxo-3-phenyl-N-[3-(propan-2-yloxy)propyl]-5H-[1,3]thiazolo[3,2-a]pyrimidine-6-carboxamide] | active
COc1ccc(S(=O)(=O)Nc2cccn3c(C4CCC4)nnc23)cc1Cl [Hit 3, 3-chloro-N-{3-cyclobutyl-[1,2,4]triazolo[4,3-a]pyridin-8-yl}-4-methoxybenzene-1-sulfonamide] | active
Cc1cc2c(cc1C(=O)NCc1c(F)cccc1Cl)OCCCO2 [Hit 1, N-[(2-chloro-6-fluorophenyl)methyl]-8-methyl-3,4-dihydro-2H-1,5-benzodioxepine-7-carboxamide] | active
O=S(=O)(Nc1ccc(Cl)c(C(F)(F)F)c1)c1cc(-c2noc(C3CCC3)n2)cs1 [Hit 5, N-[4-chloro-3-(trifluoromethyl)phenyl]-4-(5-cyclobutyl-1,2,4-oxadiazol-3-yl)thiophene-2-sulfonamide] | active
Cc1ccc(CN2CCN(CC(=O)Nc3ccc(C(C)C)cc3)C(=O)C2=O)cc1 [Hit 8, 2-{4-[(4-methylphenyl)methyl]-2,3-dioxopiperazin-1-yl}-N-[4-(propan-2-yl)phenyl]acetamide] | active
O=S(=O)(Nc1cccc(Br)c1)c1ccc(-c2nnc(C3CCC3)o2)s1 [Hit 2, N-(3-bromophenyl)-5-(5-cyclobutyl-1,3,4-oxadiazol-2-yl)thiophene-2-sulfonamide] | active
O=S(=O)(Nc1ccc(OC(F)(F)F)cc1)c1ccc(-c2cnc(C3CCC3)o2)s1 [Hit 6, 5-(2-cyclobutyl-1,3-oxazol-5-yl)-N-[4-(trifluoromethoxy)phenyl]thiophene-2-sulfonamide] | active
COc1ccc(CNC(=O)C2(C)CCCN(S(=O)(=O)c3cccc(C(F)(F)F)c3)C2)cc1 (stereo not drawn) [Hit 4, N-[(4-methoxyphenyl)methyl]-3-methyl-1-[3-(trifluoromethyl)benzenesulfonyl]piperidine-3-carboxamide] | active
O=C(NCC(=O)N1CCN(c2ccc(-c3noc(C4CCC4)n3)cc2)CC1)c1ccco1 [Hit 9, N-(2-{4-[4-(5-cyclobutyl-1,2,4-oxadiazol-3-yl)phenyl]piperazin-1-yl}-2-oxoethyl)furan-2-carboxamide] | active
Cc1ccc(S(=O)(=O)N2C(=O)CCC2C(=O)Nc2cccc3ccccc23)cc1 (stereo not drawn) [Hit 7, 1-(4-methylbenzenesulfonyl)-N-(naphthalen-1-yl)-5-oxopyrrolidine-2-carboxamide] | active

Tested on: CBL TKBD
Experiment: Co-purification of CBL TKBD with Trx-His-SLAP2/SLAP (Duet co-expression, Ni-NTA, SDS-PAGE)
Assay type: binding
Conditions: low salt concentration (0.15 M NaCl)
Excerpt: To validate the CBL/SLAP2 binding interface, a series of mutants in a Duet co-expression vector system was generated for co-purification trials. The SLAP2 sequence was preceded by thioredoxin (Trx) and His-tag fusion proteins to allow co-purification of CBL TKBD that was bound to Trx-His-SLAP2 during the initial affinity chromatography purification step. Surface residues deemed to be important to the CBL/SLAP2 interface, but not CBL function or folding, were mutated to disrupt CBL/SLAP2 binding (FIG. 5C and FIG. 6). In our structure, SLAP2 Gly240 locates close to CBL Met269 and Ala270, such that mutation to a bulky Arg residue (G240R) could cause sterical constraints. Similarly, SLAP2 Leu241 is situated in a hydrophobic cleft composed of CBL Ala223, Trp258, and Val263; mutation to Arg (L241R) was predicted to disturb this binding pocket. Mutation of CBL Ala223 to Arg (A223R) would likewise disrupt this pocket, with CBL/SLAP2 double mutant A223R/L241R predicted to drastically disturb binding through sterical constraints and charge repulsion. (For clarity, CBL mutations herein are indicated in italics, SLAP2 in regular font.) Similarly, single or double mutation of CBL Ser226 or SLAP2 Ser244, whose side chain hydroxyl groups are in close proximity to one another, to charged Glu residues (S226E and S244E) was anticipated to interfere with CBL/SLAP2 binding. Finally, given that SLAP2 binds CBL as an α-helix, mutation of Leu245, located in the center of this α-helix, to proline (L245P) was expected to interrupt the helical structure and thus prevent SLAP2 binding. […] However, double mutation of the CBL/SLAP2 interface (A223R/L241R and S226E/S244E; FIG. 5D, lower panel) was not tolerated, even at low salt concentration.
For co-purification of CBL and SLAP2/SLAP, Duet-His-hSLAP2-CBL 29-261 Δ198-229 and 29-254 Δ198-229, Duet-His-Δlinker-hSLAP2-CBL WT and point mutants, and Duet-His-mSLAP-CBL WT and point mutants were overexpressed in E. coli BL-21 as above or TKB1 competent cells (Stratagene) as per manufacturer’s instructions, and cells harvested as above (except 100 mL of LB, overnight at 16-18° C., and 0.35-0.5 mM IPTG induction). Cell pellets were resuspended in either high or low salt (as for high salt except 25 mM HEPEs pH 7.5, 150 mM NaCl) lysis buffer and purified as above on Ni-NTA agarose (Qiagen) with wash buffer (25 mM HEPEs pH 7.5, 150 mM NaCl, 2% glycerol, 20 mM imidazole, 10 mM βME). Bead slurry was mixed with SDS 2X loading buffer (125 mM Tris pH 6.8, 4% SDS, 20% glycerol, 0.715 M βME, bromophenol blue), boiled, and analyzed by 10 or 12.5% SDS-PAGE, stained with Coomassie blue.

Molecule | CBL TKBD co-purification
B1 | abrogated CBL co-purification
B2 | abrogated CBL co-purification
B3 | tolerated
B4 | abrogated CBL co-purification
B5 | tolerated

Source: US20230212239A1, “INHIBITORS OF CBL AUTOINHIBITION AND RELATED METHODS” (THE HOSPITAL FOR SICK CHILDREN, priority 2020, published 2023)
